# Source: ChEMBL document CHEMBL6087474, “Discovery of an Efficacious RET PROTAC Degrader with Enhanced Antiproliferative Activity against Resistant Cancer Cells Harboring RET Solvent-Front Mutations” (J Med Chem, 2025)
# Calls of active or inactive are those of the source. The calls are words filed in the database; no cut-off is given here.
# Legend:
# [1] = molecular target: Protein cereblon/Proto-oncogene tyrosine-protein kinase receptor Ret/Kinesin-1 heavy chain (Homo sapiens) (UniProt P07949+P33176+Q96SW2); assay: PROTAC activity at CRBN/KIF5B-RET in human LC-2-ad cells assessed as induction of RET degradation at 11.1 nM measured after 6 hrs by Western blotting analysis relative to control; type: cell-based
# Chain of Protein cereblon/Proto-oncogene tyrosine-protein kinase receptor Ret/Kinesin-1 heavy chain (Homo sapiens) (P07949 whole entry, looked up): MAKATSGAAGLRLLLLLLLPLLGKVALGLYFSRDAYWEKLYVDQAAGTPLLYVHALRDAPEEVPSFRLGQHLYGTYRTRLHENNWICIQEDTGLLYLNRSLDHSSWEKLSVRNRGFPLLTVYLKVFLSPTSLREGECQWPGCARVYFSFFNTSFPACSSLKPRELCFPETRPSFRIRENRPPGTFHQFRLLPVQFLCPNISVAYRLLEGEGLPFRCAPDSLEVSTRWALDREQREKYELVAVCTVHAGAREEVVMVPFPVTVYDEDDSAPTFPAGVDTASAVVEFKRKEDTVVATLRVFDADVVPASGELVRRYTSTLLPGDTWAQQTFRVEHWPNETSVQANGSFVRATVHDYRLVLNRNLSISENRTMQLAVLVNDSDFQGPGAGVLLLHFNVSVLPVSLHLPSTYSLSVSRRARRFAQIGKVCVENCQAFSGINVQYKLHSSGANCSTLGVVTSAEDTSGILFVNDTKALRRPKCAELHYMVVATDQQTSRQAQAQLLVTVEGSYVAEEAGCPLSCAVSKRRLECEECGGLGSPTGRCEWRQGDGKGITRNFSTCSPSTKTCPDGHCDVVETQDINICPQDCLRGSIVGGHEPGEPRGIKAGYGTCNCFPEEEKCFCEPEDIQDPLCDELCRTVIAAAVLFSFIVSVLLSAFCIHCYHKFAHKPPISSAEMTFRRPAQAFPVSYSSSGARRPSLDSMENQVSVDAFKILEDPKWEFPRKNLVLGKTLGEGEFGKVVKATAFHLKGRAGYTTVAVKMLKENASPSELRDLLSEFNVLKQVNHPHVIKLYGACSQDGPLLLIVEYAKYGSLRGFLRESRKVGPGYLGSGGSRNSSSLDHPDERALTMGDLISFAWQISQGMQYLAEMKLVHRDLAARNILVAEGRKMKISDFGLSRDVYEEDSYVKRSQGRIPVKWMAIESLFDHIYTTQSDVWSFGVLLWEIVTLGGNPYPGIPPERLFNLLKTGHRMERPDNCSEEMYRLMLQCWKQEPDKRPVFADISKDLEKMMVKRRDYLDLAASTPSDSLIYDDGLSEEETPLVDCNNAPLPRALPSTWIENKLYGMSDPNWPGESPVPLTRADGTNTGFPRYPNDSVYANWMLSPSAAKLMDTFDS
# Chain of Protein cereblon/Proto-oncogene tyrosine-protein kinase receptor Ret/Kinesin-1 heavy chain (Homo sapiens) (P33176 whole entry, looked up): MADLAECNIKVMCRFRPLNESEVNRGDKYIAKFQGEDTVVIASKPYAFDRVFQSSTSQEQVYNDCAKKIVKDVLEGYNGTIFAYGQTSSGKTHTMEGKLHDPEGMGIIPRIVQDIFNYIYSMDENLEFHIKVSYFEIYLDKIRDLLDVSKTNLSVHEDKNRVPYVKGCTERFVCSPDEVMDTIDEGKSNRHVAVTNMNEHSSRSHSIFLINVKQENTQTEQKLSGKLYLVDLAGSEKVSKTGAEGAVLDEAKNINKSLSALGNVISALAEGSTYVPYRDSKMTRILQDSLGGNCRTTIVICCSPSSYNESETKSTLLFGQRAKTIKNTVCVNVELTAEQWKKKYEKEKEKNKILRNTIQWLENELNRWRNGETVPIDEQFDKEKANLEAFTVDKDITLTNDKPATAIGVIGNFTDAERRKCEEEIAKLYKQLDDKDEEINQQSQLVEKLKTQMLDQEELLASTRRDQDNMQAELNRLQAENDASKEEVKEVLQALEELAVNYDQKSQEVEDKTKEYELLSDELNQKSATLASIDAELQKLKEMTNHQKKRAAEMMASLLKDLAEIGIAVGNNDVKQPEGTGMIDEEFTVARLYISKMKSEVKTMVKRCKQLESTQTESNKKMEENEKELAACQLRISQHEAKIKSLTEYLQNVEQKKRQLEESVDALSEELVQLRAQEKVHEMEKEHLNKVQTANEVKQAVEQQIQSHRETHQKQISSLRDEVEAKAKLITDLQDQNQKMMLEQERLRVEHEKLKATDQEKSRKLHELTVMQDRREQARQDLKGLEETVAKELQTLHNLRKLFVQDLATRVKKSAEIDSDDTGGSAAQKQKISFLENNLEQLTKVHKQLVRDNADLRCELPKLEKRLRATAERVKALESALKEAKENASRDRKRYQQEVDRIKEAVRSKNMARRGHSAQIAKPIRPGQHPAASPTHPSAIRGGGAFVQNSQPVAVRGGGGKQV
# Chain of Protein cereblon/Proto-oncogene tyrosine-protein kinase receptor Ret/Kinesin-1 heavy chain (Homo sapiens) (Q96SW2 whole entry, looked up): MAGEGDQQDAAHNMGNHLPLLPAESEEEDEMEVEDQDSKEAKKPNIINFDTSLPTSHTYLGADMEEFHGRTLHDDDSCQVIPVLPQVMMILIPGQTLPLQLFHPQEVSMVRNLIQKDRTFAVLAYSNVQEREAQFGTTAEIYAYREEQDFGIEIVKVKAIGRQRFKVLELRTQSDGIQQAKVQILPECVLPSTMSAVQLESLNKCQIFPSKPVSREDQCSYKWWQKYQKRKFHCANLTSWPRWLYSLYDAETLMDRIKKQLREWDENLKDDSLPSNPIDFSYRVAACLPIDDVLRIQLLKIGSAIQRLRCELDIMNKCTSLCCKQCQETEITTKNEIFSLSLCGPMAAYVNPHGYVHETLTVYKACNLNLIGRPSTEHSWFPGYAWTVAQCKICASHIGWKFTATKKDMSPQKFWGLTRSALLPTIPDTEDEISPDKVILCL
# [2] = Effect on Shc protein level in mouse BaF3 cells stably expressing KIF5B-RET-G810R mutant assessed as fold change at 11.1 nM measured after 6 hrs by Western blot analysis (reference value: 1); type: functional
# [3] = Effect on Shc protein level in mouse BaF3 cells stably expressing KIF5B-RET-G810C mutant assessed as fold change at 300 nM measured after 6 hrs by Western blot analysis (reference value: 1); type: functional
# [4] = Effect on RET protein level in mouse BaF3 cells stably expressing KIF5B-RET-G810C mutant assessed as fold change at 300 nM measured after 6 hrs by Western blot analysis (reference value: 1); type: functional
# [5] = Effect on Shc protein level in mouse BaF3 cells stably expressing KIF5B-RET-G810C mutant assessed as fold change at 11.1 nM measured after 6 hrs by Western blot analysis (reference value: 1); type: functional
# [6] = Effect on RET protein level in mouse BaF3 cells stably expressing KIF5B-RET-V804M mutant assessed as fold change at 33.3 nM measured after 6 hrs by Western blot analysis (reference value: 1); type: functional
# [7] = molecular target: Proto-oncogene tyrosine-protein kinase receptor Ret (Homo sapiens, UniProt P07949); assay: Inhibition of wildtype RET (unknown origin) in presence of ATP by FRET-based Z'-Lyte assay
# Chain of Proto-oncogene tyrosine-protein kinase receptor Ret (P07949 whole entry): as the sequence (P07949 whole entry, looked up) above
# [8] = Effect on RET protein level in mouse BaF3 cells stably expressing KIF5B-RET-G810R mutant assessed as fold change at 100 nM measured after 6 hrs by Western blot analysis (reference value: 1); type: functional
# BaF3 [9] = assay: PROTAC activity at CRBN/CK1alpha in mouse BaF3 cells overexpressing KIF5B-RET assessed as induction of […] at 10 to 1000 nM incubated for 6 hrs by Western blot analysis; type: cell-based; details: dose 10-1000 nM
# [10] = Effect on RET protein level in mouse BaF3 cells stably expressing KIF5B-RET-G810C mutant assessed as fold change at 11.1 nM measured after 6 hrs by Western blot analysis (reference value: 1); type: functional
# BaF3 [11] = assay: Inhibition of RET (unknown origin) phosphorylation in mouse BaF3 cells stably expressing KIF5B-RET-G810R mutant at 333.3 to 3000 nM measured after 6 hrs by Western blot analysis; type: cell-based; details: Homo sapiens, dose 333.3-3000 nM
# BaF3 [12] = assay: PROTAC activity at CRBN/IKZF1 in mouse BaF3 cells overexpressing KIF5B-RET assessed as induction of […] at 10 to 1000 nM incubated for 6 hrs by Western blot analysis; type: cell-based; details: dose 10-1000 nM
# [13] = Effect on RET protein level in mouse BaF3 cells stably expressing wildtype KIF5B-RET assessed as fold change at 11.1 nM measured after 6 hrs by Western blot analysis (reference value: 1); type: functional
# [14] = Induction of apoptosis in mouse BaF3 cells stably expressing KIF5B-RET-G810C mutant assessed as necrotic cells at 300 nM measured after 48 hrs by Annexin V-FITC/7-AAD staining based flow cytometric analysis (reference value: 2.89 %); type: functional
compound,measurement,setting,value
COc1ccc(CN2C3CC2CN(c2ccc(-c4cc(-c5cnn(C6CCN(CCCCCC#Cc7cccc8c7CN(C7CCC(=O)NC7=O)C8=O)CC6)c5)cn5ncc(C#N)c45)cn2)C3)cn1 (centres undefined),Activity,[1],61.6%
same,fold change (FC),[2],0.9
same,fold change (FC),[3],1
same,fold change (FC),[4],0.3
same,fold change (FC),[5],1
same,fold change (FC),[6],0.2
same,IC50,[7],5.7 nM
same,fold change (FC),[8],0.9
same,Activity,BaF3 [9],inactive
same,fold change (FC),[10],0.7
same,inhibition,BaF3 [11],Active
same,Activity,BaF3 [12],inactive
same,fold change (FC),[13],0.5
same,Activity,[14],2.15%
